Results published in ChEMBL document CHEMBL1201862, “PubChem BioAssay data set” (2004).
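Five concentrations, 48 hours, 96-well plates. Abbreviation: GI50, concentration required for 50% inhibition of growth.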 The source made the active and inactive calls. No stated cut-off is given here; in the data, active = GI50 up to about 1.1 µM and inactive = higher.

Legend:
Assay in all cases: NCI anticancer screen, dose series, 48 h
NCI-H522 = system: NCI-H522
KM12 = system: KM12
SF-268 = system: SF-268
LOX IMVI = system: LOX IMVI
CCRF-CEM = system: CCRF-CEM
HT-29 = system: HT-29
SF-539 = system: SF-539
U-251 = system: U-251
MOLT-4 = system: MOLT-4
Malme-3M = system: Malme-3M
A549 = system: A549
A498 = system: A498
K562 = system: K562
SK-MEL-5 = system: SK-MEL-5
SK-OV-3 = system: SK-OV-3
SK-MEL-2 = system: SK-MEL-2
RPMI-8226 = system: RPMI-8226

Measured: GI50

O=C1CSC(C(/N=N/c2ccccc2)=C2Nc3ccccc3N2)=N1
inactive: NCI-H522 56.4 µM | KM12 66.1 µM | SF-268 36.1 µM | LOX IMVI 52.1 µM | CCRF-CEM 5.79 µM | HT-29 83.4 µM | SF-539 26.4 µM | U-251 97.9 µM | MOLT-4 10 µM | Malme-3M 58.3 µM | A549 53.2 µM | A498 30.7 µM | K562 33.5 µM | SK-MEL-5 39.8 µM | SK-OV-3 18.3 µM | SK-MEL-2 53.3 µM

CN(C)c1ccc(-c2cc(O)c3ccccc3n2)cc1
inactive: NCI-H522 > 100 µM | KM12 > 100 µM | SF-268 > 100 µM | LOX IMVI > 100 µM | CCRF-CEM > 100 µM | HT-29 > 100 µM | SF-539 > 100 µM | U-251 > 100 µM | MOLT-4 > 100 µM | Malme-3M > 100 µM | A549 > 100 µM | K562 > 100 µM | RPMI-8226 > 100 µM

CN1CCc2c1nc(-c1cccnc1)c1c2N(C)CC1
inactive: KM12 > 100 µM | SF-268 > 100 µM | LOX IMVI > 100 µM | CCRF-CEM > 100 µM | HT-29 95.3 µM | SF-539 > 100 µM | U-251 > 100 µM | MOLT-4 > 100 µM | Malme-3M > 100 µM | A549 > 100 µM | A498 52 µM | K562 > 100 µM | RPMI-8226 > 100 µM | SK-MEL-5 > 100 µM | SK-OV-3 > 100 µM | SK-MEL-2 > 100 µM

CC1=C(C(=O)NNS(=O)(=O)c2ccc(C)cc2)CC(C(=O)NNS(=O)(=O)c2ccc(C)cc2)=C(C)N1
inactive: NCI-H522 66.5 µM | KM12 > 100 µM | SF-268 > 100 µM | LOX IMVI > 100 µM | CCRF-CEM > 10 µM | HT-29 > 100 µM | SF-539 > 100 µM | U-251 > 100 µM | MOLT-4 46.8 µM | Malme-3M > 100 µM | A549 > 100 µM | K562 56.9 µM | RPMI-8226 36.2 µM | SK-OV-3 > 100 µM | SK-MEL-2 > 100 µM

Cc1cc(N(CCC#N)CCC#N)ccc1/N=N/c1cccc(Cl)c1
inactive: NCI-H522 > 100 µM | KM12 > 100 µM | CCRF-CEM > 100 µM | HT-29 4.08 µM | SF-539 > 100 µM | U-251 > 100 µM | Malme-3M > 100 µM | A549 9.93 µM | A498 > 100 µM | K562 3.42 µM | RPMI-8226 > 100 µM | SK-MEL-5 > 100 µM | SK-OV-3 > 100 µM | SK-MEL-2 > 100 µM

CC(=O)C(CN(CC(C)C)CC(C)C)C(c1ccccc1)c1c(O)c2ccccc2oc1=O (centres undefined)
inactive: NCI-H522 > 100 µM | SF-268 > 100 µM | LOX IMVI > 100 µM | CCRF-CEM > 10 µM | HT-29 > 100 µM | SF-539 > 100 µM | MOLT-4 > 100 µM | Malme-3M > 100 µM | A549 > 100 µM | A498 > 100 µM | K562 > 10 µM | RPMI-8226 > 100 µM | SK-OV-3 > 100 µM | SK-MEL-2 > 100 µM

Cc1ccc(NC(=O)C(=O)C2C(=O)N(c3ccccc3)N=C2N)cc1C (centres undefined)
inactive: NCI-H522 > 100 µM | KM12 > 100 µM | SF-268 > 100 µM | CCRF-CEM > 100 µM | HT-29 > 100 µM | SF-539 > 100 µM | U-251 > 100 µM | MOLT-4 > 100 µM | Malme-3M > 100 µM | A549 > 100 µM | A498 > 100 µM | K562 > 100 µM | RPMI-8226 > 100 µM | SK-MEL-5 > 100 µM | SK-OV-3 > 100 µM

O=S1(=O)C[C@H](O)[C@H](O)CS1
inactive: NCI-H522 > 100 µM | KM12 > 100 µM | SF-268 > 100 µM | LOX IMVI > 100 µM | HT-29 > 100 µM | SF-539 > 100 µM | U-251 > 100 µM | MOLT-4 > 100 µM | Malme-3M > 100 µM | A549 > 100 µM | A498 > 100 µM | K562 > 100 µM | RPMI-8226 > 100 µM | SK-MEL-5 > 100 µM | SK-OV-3 > 100 µM

O=C(Nc1nc2c(ncn2C2OC(CO)C(O)C2O)c(=O)[nH]1)c1ccccc1 (centres undefined)
inactive: NCI-H522 93.3 µM | KM12 > 100 µM | SF-268 > 100 µM | LOX IMVI > 100 µM | CCRF-CEM 2.5 µM | HT-29 > 100 µM | SF-539 > 100 µM | U-251 > 100 µM | Malme-3M > 100 µM | A549 > 100 µM | A498 > 100 µM | K562 > 100 µM | RPMI-8226 > 100 µM | SK-MEL-5 > 100 µM | SK-OV-3 > 100 µM | SK-MEL-2 > 100 µM

Cc1oc2c(C)c(O)c3c(c2c1C1(C)OCCO1)C(=O)C=C(Cl)C3=O
inactive: NCI-H522 > 100 µM | KM12 > 100 µM | SF-268 > 100 µM | LOX IMVI > 100 µM | CCRF-CEM > 100 µM | HT-29 > 100 µM | SF-539 > 100 µM | U-251 > 100 µM | MOLT-4 > 100 µM | A549 > 100 µM | A498 > 100 µM | K562 > 100 µM | RPMI-8226 > 100 µM | SK-MEL-5 > 100 µM | SK-MEL-2 > 100 µM

Cc1ccccc1NC(=O)CC(=O)NNCC(=O)Nc1nnc(-c2ccccc2)s1
inactive: NCI-H522 65.2 µM | KM12 > 100 µM | SF-268 > 100 µM | LOX IMVI 51.3 µM | HT-29 > 100 µM | SF-539 > 100 µM | U-251 50 µM | MOLT-4 35.7 µM | A549 > 100 µM | A498 30.9 µM | K562 37.8 µM | RPMI-8226 25 µM | SK-MEL-5 51.1 µM | SK-MEL-2 > 100 µM

O=c1c(Cc2ccccc2)c(O)cc2n1CCC2
inactive: NCI-H522 > 100 µM | KM12 > 100 µM | SF-268 > 100 µM | LOX IMVI > 100 µM | CCRF-CEM 41.5 µM | HT-29 > 100 µM | SF-539 > 100 µM | U-251 > 100 µM | MOLT-4 > 100 µM | Malme-3M > 100 µM | A549 > 100 µM | A498 > 100 µM | K562 > 100 µM | RPMI-8226 > 100 µM | SK-MEL-5 > 100 µM | SK-OV-3 > 100 µM

COc1ccc(N2C(=O)C3c4[nH]c5ccccc5c4C4CC(C)CC(C)C4C3C2=O)cc1 (centres undefined)
inactive: NCI-H522 > 100 µM | SF-268 > 100 µM | CCRF-CEM > 100 µM | HT-29 > 100 µM | SF-539 > 100 µM | U-251 > 100 µM | MOLT-4 > 100 µM | Malme-3M > 100 µM | A549 > 100 µM | A498 > 100 µM | K562 > 100 µM | RPMI-8226 > 100 µM | SK-MEL-5 > 100 µM | SK-OV-3 > 100 µM

C=CCC1(CN(C)C)CC/C(=C\c2cc(OC)c(OC)c(OC)c2)C1=O (centres undefined)
inactive: NCI-H522 15.1 µM | KM12 17.4 µM | SF-268 19.2 µM | LOX IMVI 23.2 µM | CCRF-CEM 23.3 µM | HT-29 20.5 µM | SF-539 18.7 µM | U-251 23 µM | MOLT-4 27.5 µM | Malme-3M 33.1 µM | A549 40.2 µM | A498 29.4 µM | K562 20.4 µM | RPMI-8226 24.5 µM | SK-MEL-5 20 µM | SK-MEL-2 42.8 µM

O=C1[C@H]2C(c3ccccc3)=NN(C(=O)c3ccccc3)[C@H]2C(=O)N1c1ccccc1
inactive: NCI-H522 > 100 µM | KM12 > 100 µM | LOX IMVI > 100 µM | CCRF-CEM > 100 µM | HT-29 > 100 µM | SF-539 > 100 µM | U-251 > 100 µM | MOLT-4 > 100 µM | Malme-3M > 100 µM | A549 > 100 µM | K562 > 100 µM | RPMI-8226 > 100 µM | SK-OV-3 > 100 µM | SK-MEL-2 > 100 µM

COc1ccc(C2C3=C(COC3=O)Oc3cc4c(cc32)OCO4)cc1 (centres undefined)
inactive: LOX IMVI 27.4 µM | CCRF-CEM 6.46 µM | HT-29 3.81 µM | SF-539 19.4 µM | U-251 23.9 µM | MOLT-4 6.71 µM | Malme-3M 56 µM | A549 9.18 µM | K562 3.85 µM | RPMI-8226 12.7 µM | SK-MEL-5 11.7 µM | SK-OV-3 > 100 µM | SK-MEL-2 47.1 µM

CC(C)(C)[C@H]1CO[C@]2(C)[C@@H]3C[C@@H]3C(=O)N12
inactive: NCI-H522 > 100 µM | KM12 > 100 µM | SF-268 > 100 µM | LOX IMVI > 100 µM | CCRF-CEM > 100 µM | HT-29 > 100 µM | SF-539 > 100 µM | U-251 > 100 µM | Malme-3M > 100 µM | A549 > 100 µM | K562 > 100 µM | RPMI-8226 > 100 µM | SK-MEL-5 > 100 µM | SK-OV-3 > 100 µM | SK-MEL-2 > 100 µM

Cc1cccc(NC2=NC(=O)C(CC(=O)Nc3ccccc3Cl)S2)c1 (centres undefined)
inactive: SF-268 > 100 µM | LOX IMVI > 100 µM | CCRF-CEM > 100 µM | HT-29 > 100 µM | SF-539 > 100 µM | MOLT-4 > 100 µM | Malme-3M > 100 µM | A549 > 100 µM | A498 > 100 µM | K562 > 100 µM | RPMI-8226 > 100 µM | SK-MEL-5 > 100 µM | SK-MEL-2 > 100 µM
